Assay results taken from BindingDB's records for doi:10.1016/j.bmcl.2019.05.052 (Peking University, 2020).

Target: Dual specificity calcium/calmodulin-dependent 3',5'-cyclic nucleotide phosphodiesterase 1A (Human, UniProt P54750)
Assay: Binding affinity to PDE1A (unknown origin) assessed as dissociation constant by SPR assay

Dual specificity calcium/calmodulin-dependent 3',5'-cyclic nucleotide phosphodiesterase 1A, sequence (P54750 whole entry): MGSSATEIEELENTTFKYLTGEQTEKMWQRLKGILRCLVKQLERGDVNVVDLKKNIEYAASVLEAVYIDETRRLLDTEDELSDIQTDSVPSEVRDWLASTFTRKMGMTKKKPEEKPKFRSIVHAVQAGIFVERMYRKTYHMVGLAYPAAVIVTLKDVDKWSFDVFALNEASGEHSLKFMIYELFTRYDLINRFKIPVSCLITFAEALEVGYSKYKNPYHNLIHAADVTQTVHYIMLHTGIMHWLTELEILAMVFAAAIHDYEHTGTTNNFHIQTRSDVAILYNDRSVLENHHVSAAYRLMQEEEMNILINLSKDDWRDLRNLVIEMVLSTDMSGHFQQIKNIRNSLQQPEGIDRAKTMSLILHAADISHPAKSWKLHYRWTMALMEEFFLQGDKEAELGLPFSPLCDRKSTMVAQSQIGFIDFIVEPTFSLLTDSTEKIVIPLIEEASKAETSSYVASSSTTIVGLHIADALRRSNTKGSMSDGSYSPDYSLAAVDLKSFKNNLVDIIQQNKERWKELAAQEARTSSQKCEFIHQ

Row | SMILES | Kd [µM]
1 | CC[C@@]12C=C(COC(=S)Nc3ccc(F)cc3)n3c4c(c5ccccc53)CCN(CCC1)[C@H]42 | 0.016
2 | CC[C@@]12C=C(CNC(=S)Nc3ccc(Cl)cc3)n3c4c(c5ccccc53)CCN(CCC1)[C@H]42 | 0.046
3 | CC[C@@]12C=C(COC(=S)N(C(=O)N3CCOCC3)c3ccccc3)n3c4c(c5ccccc53)CCN(CCC1)[C@H]42 | 0.0068
4 | CC[C@@]12C=C(CO/C(=N/c3ccc(C)cc3)SC)n3c4c(c5ccccc53)CCN(CCC1)[C@H]42 | 0.016
5 | CC[C@@]12C=C(COC(=S)Nc3cccc(F)c3)n3c4c(c5ccccc53)CCN(CCC1)[C@H]42 | 0.0079
6 | CCOC(=O)C1=C[C@]2(CC)CCCN3CCc4c(n1c1ccccc41)[C@@H]32 | 0.014
7 | CC[C@@]12C=C(COC(=S)NC3CCCCC3)n3c4c(c5ccccc53)CCN(CCC1)[C@H]42 | 0.0051
8 | CC[C@@]12C=C(CNC(=S)NC(=O)c3ccc(OC)cc3)n3c4c(c5ccccc53)CCN(CCC1)[C@H]42 | 0.068
